# Assay results from patent publication US20240109881A1, “Heteroaryl Compounds as Ligand Directed Degraders of IRAK4” (Bristol-Myers Squibb Company, priority 2022, published 2024).
# Structures can show the parent of a compound that is named as a salt.
# Target: T1, IRAK4 (Homo sapiens, UniProt Q9NWZ3)
# T1 construct: endogenous in cells; host or cells: THP-1 cells
# T1 sequence (Q9NWZ3 1-460): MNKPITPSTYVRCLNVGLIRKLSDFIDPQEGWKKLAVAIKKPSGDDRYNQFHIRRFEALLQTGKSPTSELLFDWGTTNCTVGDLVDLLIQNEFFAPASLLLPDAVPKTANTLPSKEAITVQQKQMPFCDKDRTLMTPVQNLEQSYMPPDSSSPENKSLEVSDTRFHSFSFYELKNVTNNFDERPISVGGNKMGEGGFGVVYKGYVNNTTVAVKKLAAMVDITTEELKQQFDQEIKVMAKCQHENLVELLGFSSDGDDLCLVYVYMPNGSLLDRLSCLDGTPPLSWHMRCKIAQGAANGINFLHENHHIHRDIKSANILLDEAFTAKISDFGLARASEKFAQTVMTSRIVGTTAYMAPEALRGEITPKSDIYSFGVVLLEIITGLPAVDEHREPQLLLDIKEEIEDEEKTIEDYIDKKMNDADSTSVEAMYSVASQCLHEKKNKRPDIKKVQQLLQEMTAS
# Assay: LVL THP1 HTRF (THP1 Homogeneous Time Resolved Fluorescence)
# Assay type: cell-based
# Settings: THP1 cells, 18 h incubation with compound; for DC50: read-out: LVL THP1 HTRF EC50
# Summary of the method: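 IRAK4 HTRF read-out (665/615 nm ratio, anti-IRAK4 d2 acceptor and K donor, 18 h dark incubation at room temperature) on lysates of THP-1 cells. Cells were treated 18 h at 37° C. with 20 nL compound in DMSO, in colorless RPMI with 10% FBS, with a duplicate CTG plate.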
Compound,LVL THP1 HTRF YMIN [%],DC50 [nM]
CCc1nc2c(cnn2-c2cc(N[C@H](C)C#N)c(C(=O)N[C@H]3CC[C@H](CCN4CCN(c5ccc(C6CCC(=O)NC6=O)cc5)CC4)CC3)cn2)cc1C#N (some centres unmarked) [P-192],1.0,58
C[C@H](C#N)Nc1cc(-n2ncc3cc(C#N)cnc32)ncc1C(=O)N[C@H]1CC[C@H](CCN2CC3COCC(C2)N3c2ccc(C3CCC(=O)NC3=O)cc2)CC1 (some centres unmarked) [P-194],39.8,4040
C[C@H](C#N)Nc1cc(-n2ncc3cc(C#N)cnc32)ncc1-c1cn(C2CCC(CCN3CCN(c4ccc(C5CCC(=O)NC5=O)cc4)CC3)CC2)nn1 (some centres unmarked) [P-195],2.2,–
C[C@H](C#N)Nc1cc(-n2ncc3cc(C#N)cnc32)ncc1-c1cc(C2CCC(CCN3CCN(c4ccc(C5CCC(=O)NC5=O)cc4)CC3)CC2)on1 (some centres unmarked) [P-196],3.5,–
C[C@H](C#N)Nc1cc(-n2ncc3cc(C#N)cnc32)ncc1-c1cc([C@H]2CC[C@H](CCN3CCN(c4ccc(C5CCC(=O)NC5=O)cc4)CC3)CC2)on1 (some centres unmarked) [P-196],–,167
CC(C#N)Nc1cc(-n2ncc3cc(C#N)cnc32)ncc1-n1cc(C2CCC(C(F)CN3CCN(c4ccc(C5CCC(=O)NC5=O)cc4)CC3)CC2)nn1 (centres unmarked) [P-198],1.2,10
C[C@H](C#N)Nc1cc(-n2ccc3cc(C#N)c(N)nc32)ncc1C(=O)N[C@H]1CC[C@H](CCN2CCN(c3ccc(C4CCC(=O)NC4=O)cc3)CC2)CC1 (some centres unmarked) [P-200],1.5,13
"C[C@H](C#N)Nc1cc(-n2ncc3cc(C#N)cnc32)ncc1-n1cc(C23CCC(CCN4CCN(c5ccc(C6CCC(=O)NC6=O)cc5)CC4)(CC2)C3)nn1 (stereo partly drawn) [P-202, 1-(4-(((R)-1-cyanoethyl)amino)-5-(4-(4-(2-(4-(4-(2,6-dioxopiperidin-3-yl)phenyl)piperazin-1-yl)ethyl)bicyclo[2.2.1]heptan-1-yl)-1H-1,2,3-triazol-1-yl)pyridin-2-yl)-1H-pyrazolo[3,4-b]pyridine-5-carbonitrile, TFA]",1.4,10
C[C@H](C#N)Nc1cc(-n2ncc3cc(C#N)cnc32)ncc1-c1cnn(C2CCC(CCN3CCN(c4ccc(C5CCC(=O)NC5=O)cc4)CC3)CC2)c1 (some centres unmarked) [P-203],3.0,–
C[C@H](C#N)Nc1cc(-n2ncc3cc(C#N)cnc32)ncc1-c1cnn([C@H]2CC[C@H](CCN3CCN(c4ccc(C5CCC(=O)NC5=O)cc4)CC3)CC2)c1 (some centres unmarked) [P-203],–,11
C[C@@H](C#N)Nc1cc(-n2ncc3cc(C#N)cnc32)ncc1-n1cc(C2CCC(CCN3CCN(c4ccc(C5CCC(=O)NC5=O)cc4)CC3)CC2)nn1 (some centres unmarked) [P-205],1.1,–
C[C@@H](C#N)Nc1cc(-n2ncc3cc(C#N)cnc32)ncc1-n1cc([C@H]2CC[C@H](CCN3CCN(c4ccc(C5CCC(=O)NC5=O)cc4)CC3)CC2)nn1 (some centres unmarked) [P-205],–,30
C[C@H](C#N)Nc1cc(-n2ncc3cc(C#N)c(N)nc32)ncc1-n1cc(C2CCC(CCN3C[C@@H](C)N(c4ccc(C5CCC(=O)NC5=O)cc4)C[C@@H]3C)CC2)nn1 (some centres unmarked) [P-207],1.3,> 5000
C[C@H](C#N)Nc1cc(-n2ncc3cc(C#N)cnc32)ncc1-n1cc(C2CCC(CCN3CCC(c4ccc(C5CCC(=O)NC5=O)cc4)CC3)CC2)nn1 (some centres unmarked) [P-209],0.9,–
C[C@H](C#N)Nc1cc(-n2ncc3cc(C#N)cnc32)ncc1-n1cc(C2CCC(CCN3CCN(c4ccc([C@]5(C)CCC(=O)NC5=O)cc4)CC3)CC2)nn1 (some centres unmarked) [P-210],>95.0,15
C[C@H](C#N)Nc1cc(-n2ncc3cc(C#N)cnc32)ncc1-c1cc(C2CCC(CCN3CCN(c4ccc(C5CCC(=O)NC5=O)cc4)CC3)CC2)no1 (some centres unmarked) [P-211],1.1,–
C[C@H](C#N)Nc1cc(-n2ncc3cc(C#N)c(N)nc32)ncc1-n1cc(C2CCC(CCN3CCC(c4ccc(C5CCC(=O)NC5=O)cc4)CC3)CC2)nn1 (some centres unmarked) [P-214],<0.5,–
CS(=O)(=O)N1CCC(Nc2cc(-n3ncc4cc(C#N)c(N)nc43)ncc2-n2cc(C3CCC(CCN4CCN(c5ccc(C6CCC(=O)NC6=O)cc5)CC4)CC3)nn2)CC1 (centres unmarked) [P-217],1.6,–
C[C@H](C#N)Nc1cc(-n2ncc3cncnc32)ncc1-n1cc(C2CCC(CCN3CCN(c4ccc(C5CCC(=O)NC5=O)cc4)CC3)CC2)nn1 (some centres unmarked) [P-218],4.3,–
C[C@H](C#N)Nc1cc(-n2ncc3cc(C#N)c(N)nc32)ncc1-n1cc(C2CCC(CCN3CCN(c4ccc([C@@]5(C)CCC(=O)NC5=O)cc4)CC3)CC2)nn1 (some centres unmarked) [P-222],2.1,–
C[C@H](C#N)Nc1cc(-n2ncc3cc(C#N)cnc32)ncc1-c1ncn(C2CCC(CCN3CCN(c4ccc(C5CCC(=O)NC5=O)cc4)CC3)CC2)n1 (some centres unmarked) [P-224],15.9,–

# Next, values leading:
LVL THP1 HTRF YMIN [%],DC50 [nM],Compound
–,6,C[C@H](C#N)Nc1cc(-n2ncc3cc(C#N)cnc32)ncc1-c1cn([C@H]2CC[C@H](CCN3CCN(c4ccc(C5CCC(=O)NC5=O)cc4)CC3)CC2)nn1 (some centres unmarked) [P-195]
2.7,2,"C[C@H](C#N)Nc1cc(-n2ncc3cc(C#N)cnc32)ncc1-n1cc([C@H]2CC[C@H](C(Cl)CN3CCN(c4ccc(C5CCC(=O)NC5=O)cc4)CC3)CC2)nn1 (stereo partly drawn) [P-199, 1-(5-(4-((1R,4R)-4-((1R)-1-chloro-2-(4-(4-(2,6-dioxopiperidin-3-yl)phenyl)piperazin-1-yl)ethyl)cyclohexyl)-1H-1,2,3-triazol-1-yl)-4-(((R)-1-cyanoethyl)amino)pyridin-2-yl)-1H-pyrazolo[3,4-b]pyridine-5-carbonitrile.TFA]"
0.6,2,C[C@H](C#N)Nc1cc(-n2ncc3cc(C#N)cnc32)ncc1-n1cc(C2CCC(CCN3[C@@H](C)CN(c4ccc(C5CCC(=O)NC5=O)cc4)C[C@@H]3C)CC2)nn1 (some centres unmarked) [P-201]
1.1,2,C[C@H](C#N)Nc1cc(-n2ncc3cc(C#N)cnc32)ncc1-n1cc(C2CCC(CCN3C[C@H](C)N(c4ccc(C5CCC(=O)NC5=O)cc4)C[C@H]3C)CC2)nn1 (some centres unmarked) [P-206]
1.4,9,C[C@H](C#N)Nc1cc(-n2ncc3cc(C#N)cnc32)ncc1-n1cc(C2CCC(CCN3C[C@@H](C)N(c4ccc(C5CCC(=O)NC5=O)cc4)C[C@@H]3C)CC2)nn1 (some centres unmarked) [P-208]
–,1,C[C@H](C#N)Nc1cc(-n2ncc3cc(C#N)cnc32)ncc1-n1cc([C@H]2CC[C@H](CCN3CCC(c4ccc(C5CCC(=O)NC5=O)cc4)CC3)CC2)nn1 (some centres unmarked) [P-209]
–,3,C[C@H](C#N)Nc1cc(-n2ncc3cc(C#N)cnc32)ncc1-c1cc([C@H]2CC[C@H](CCN3CCN(c4ccc(C5CCC(=O)NC5=O)cc4)CC3)CC2)no1 (some centres unmarked) [P-211]
1.5,3,CC(C#N)Nc1cc(-n2ncc3cc(C#N)cnc32)ncc1-n1cc(C23CCC(CCN4CCN(c5ccc(C6CCC(=O)NC6=O)cc5)CC4)(CC2)CC3)nn1 (centres unmarked) [P-212]
1.7,2,CC(C#N)Nc1cc(-n2ncc3cc(C#N)cnc32)ncc1-n1cc(C2CCC(C(C)CN3CCN(c4ccc(C5CCC(=O)NC5=O)cc4)CC3)CC2)nn1 (centres unmarked) [P-213]
–,< 1,C[C@H](C#N)Nc1cc(-n2ncc3cc(C#N)c(N)nc32)ncc1-n1cc([C@H]2CC[C@H](CCN3CCC(c4ccc(C5CCC(=O)NC5=O)cc4)CC3)CC2)nn1 (some centres unmarked) [P-214]
0.7,< 1,C[C@H](C#N)Nc1cc(-n2ncc3cc(C#N)c(N)nc32)ncc1-n1cc(C2CCC(CCN3C[C@H](C)N(c4ccc(C5CCC(=O)NC5=O)cc4)C[C@H]3C)CC2)nn1 (some centres unmarked) [P-215]
1.,1,C[C@H](C#N)Nc1cc(-n2ncc3cc(C#N)c(N)nc32)ncc1-n1cc(C2CCC(CCN3CCN(c4ccc(C5CCC(=O)NC5=O)cc4)[C@H](C)C3)CC2)nn1 (some centres unmarked) [P-216]
–,9,CS(=O)(=O)N1CCC(Nc2cc(-n3ncc4cc(C#N)c(N)nc43)ncc2-n2cc([C@H]3CC[C@H](CCN4CCN(c5ccc(C6CCC(=O)NC6=O)cc5)CC4)CC3)nn2)CC1 (some centres unmarked) [P-217]
–,6,C[C@H](C#N)Nc1cc(-n2ncc3cncnc32)ncc1-n1cc([C@H]2CC[C@H](CCN3CCN(c4ccc(C5CCC(=O)NC5=O)cc4)CC3)CC2)nn1 (some centres unmarked) [P-218]
1.8,6,C[C@H](C#N)Nc1cc(-n2ncc3cc(C#N)c(N)nc32)ncc1-n1cc(C2CCC(CCN3CCN(c4ccc(C5CCC(=O)NC5=O)cc4)[C@@H](C)C3)CC2)nn1 (some centres unmarked) [P-219]
4.3,6,C[C@H](C#N)Nc1cc(-n2ncc3cc(C#N)c(N)nc32)ncc1-n1cc(C2CCC(CCN3[C@H](C)CN(c4ccc(C5CCC(=O)NC5=O)cc4)C[C@H]3C)CC2)nn1 (some centres unmarked) [P-220]
1.4,5,C[C@H](C#N)Nc1cc(-n2ncc3cc(C#N)cnc32)ncc1-n1cc(C2CCC(CCN3[C@H](C)CN(c4ccc(C5CCC(=O)NC5=O)cc4)C[C@H]3C)CC2)nn1 (some centres unmarked) [P-221]
–,7,C[C@H](C#N)Nc1cc(-n2ncc3cc(C#N)c(N)nc32)ncc1-n1cc([C@H]2CC[C@H](CCN3CCN(c4ccc([C@@]5(C)CCC(=O)NC5=O)cc4)CC3)CC2)nn1 [P-222]
2.1,< 1,C[C@H](C#N)Nc1cc(-n2ncc3cc(C#N)c(N)nc32)ncc1-n1cc(C2CCC(CCN3[C@@H](C)CN(c4ccc(C5CCC(=O)NC5=O)cc4)C[C@@H]3C)CC2)nn1 (some centres unmarked) [P-223]
